The text below walks through data of patent publication US8951999B2, “Compounds” (Orexo AB, priority 2009, dated 2015).

Some results are limits rather than exact numbers.

In the test the target is T1, recombinant human mPGES-1 (Homo sapiens, UniProt O14684).
T1 sequence (O14684 1-152): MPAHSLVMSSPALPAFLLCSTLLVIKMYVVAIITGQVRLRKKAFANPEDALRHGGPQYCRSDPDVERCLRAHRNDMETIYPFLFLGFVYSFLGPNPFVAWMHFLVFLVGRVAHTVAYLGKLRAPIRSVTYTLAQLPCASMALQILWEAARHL
Description: Assay B: mPGES-1 enzyme assay (modified). It is filed as biochemical. The settings on record: biological assay B (all other compounds); PGH2 final conc. 2 μM, HTRF; read-out: mPGES-1 inhibitory effect IC50. The procedure: Assay B: mPGES-1 Enzyme Assay (Modified)
The aim of this assay is to determine the affinity of a test compound for the mPGES-1 enzyme.
47 μl of recombinant human mPGES-1 (˜0.5 μg protein/well) containing microsomal suspension in a buffer containing GSH, (2.5 mmol/L L-Glutathione reduced, dissolved in 0.1 mol/L Phosphat Buffer pH 7.4) is dispensed in a 384-well plate and thereafter 1 μl of the test compound(s) is/are added and incubated for 25 minutes at room temperature. The enzyme reaction is started by the addition of 2 ul PGH2 (final conc. 2 μM) dissolved in water-free Diglyme. After 60 seconds the reaction is terminated by addition of a stop solution containing FeCl2 (10 μL 0.074 mol/l FeCl2). The samples are diluted between 1:25 in PBS (Phosphate Buffered Saline). 10 μl of the diluted samples are transferred to 384-well low volume plate. In order to quantify the amount of PGE2 that has been formed, a homogenous time resolved fluorescent (HTRF) detecting of PGE2 has been performed using a commercially available kit from Cisbio according to the manufactures recommendation. This HTRF-based assay has been described in detail (see: Goedken et al., J Biomol Screen, 2008, 13(7), 619-625). Briefly, the diluted samples are mixed with […] PGE2-d2 conjugate and 5 μl anti-PGE2 cryptate conjugate. After an incubation period of the plates over night, the fluorescence is measured by the use of an appropriate microplate reader.
The fluorescence of Europium cryptate (maxex=307 nm, maxem=620 nm) and d2-PGE2 (maxex=620 nm, maxem=665 nm) are measured.
The extent of the specific HTRF is measured as a ratio of the emission intensity at 665 nm vs. that at 620 nm at an excitation pulse of 320 nm. The quantification plate contains also wells with different concentrations of PGE2 as calibration curve for the calculation of the PGE2 concentrations from the HTRF ratio values.
From all mPGES enzyme assay the background is subtracted and the IC50 is calculated over a nonlinear regression with conventional software.
(Time-resolved FRET reads energy transfer from a long-lived donor to a nearby acceptor.)

The IC50 is the concentration that gives 50% inhibition. Take `COCCOc1ccc(NC(=O)c2cc(CNC(=O)C(C)(C)C(F)(F)F)ccc2Cl)cc1C(=O)Nc1ccc(Br)cc1` [Example 72]: the IC50 came out at 4 nM.
Under `CC(C)(C(=O)NCc1ccc(Cl)c(C(=O)Nc2ccc(OCC(F)F)c(C(=O)Nc3ccc(Br)cc3F)c2)c1)C(F)(F)F` [Example 100] stands 5 nM; under `CC(C)(C(=O)NCc1ccc(Cl)c(C(=O)Nc2ccc(OCC(F)F)c(C(=O)NC[C@@H]3CCCO3)c2)c1)C(F)(F)F` [Example 117], 40 nM.
Regarding `CC(C)(C(=O)NCc1ccc(Cl)c(C(=O)Nc2ccc(N3CCC(F)CC3)c(C(=O)Nc3ccc(F)c(Cl)c3)c2)c1F)C(F)(F)F` [Example 57, N-[4-(4-Fluoro-piperidin-1-yl)-3-(3-chloro-4-fluorophenyl)aminocarbonyl-phenyl]-2-fluoro-6-chloro-3-[(2,2,2-trifluoro-1,1-dimethyl-ethyl)carbonylamino]methyl-benzamide], the IC50 was 2 nM.
For `CC(C)(C)C(=O)NCc1ccc(Cl)c(C(=O)Nc2ccc(N3CCC(F)(F)C3)c(C(=O)Nc3ccc(Br)cc3)c2)c1Cl` [Example 179] the value was 4 nM.
Under `CC(C)(C)C(=O)NCc1ccc(Cl)c(C(=O)Nc2ccc(OCC(F)F)c(C(=O)Nc3ccc(Br)cc3)c2)c1F` [Example 45, N-[4-(2,2-Difluoroethyl)oxy-3-(4-bromophenyl)aminocarbonyl-phenyl]-6-chlor-2-fluor-3-(tert-butylcarbonylamino)methyl-benzamide] stands 4 nM.
With `CC(N)(C(=O)NCc1ccc(Cl)c(C(=O)Nc2ccc(OCC(F)F)c(C(=O)Nc3ccc(Br)cc3)c2)c1)C(F)(F)F` (stereo not shown) [Example 171], the IC50 was 6 nM.
Consider `CC(C)(C(=O)NCc1ccc(Cl)c(C(=O)Nc2ccc(OCC(F)F)c(C(=O)Nc3ccc(F)c(Cl)c3)c2)c1F)C(F)(F)F` [Example 77, N-[4-(2,2-Difluoroethyl)oxy-3-(4-fluoro-3-chloro-phenyl)aminocarbonyl-phenyl]-6-chloro-2-fluoro-3-[(2,2,2-trifluoro-1,1-dimethyl-ethyl)carbonylamino]methyl-benzamide], for which the concentration for half-maximal inhibition (IC50) turned out to be 2 nM.
For `CC(C)(C)C(=O)NCc1ccc(Cl)c(C(=O)Nc2cnc(OCC(F)F)c(C(=O)N[C@H]3CC[C@H](C(F)(F)F)CC3)c2)c1Cl` [Example 178] the value was 7 nM; for `CC(C)(C)C(=O)NCc1ccc(Cl)c(C(=O)Nc2ccc(OC3CCOC3)c(C(=O)Nc3ccc(Br)cc3)c2)c1` (stereo not shown) [Example 66, N-[4-(Tetrahydrofuran-3-yloxy)-3-(4-bromophenyl)aminocarbonyl-phenyl]-2-chloro-5-(tert-butyl-carbonylaminomethyl)-benzamide], 5 nM.
For `O=C(Nc1ccc(OCC(F)F)c(C(=O)Nc2ccc(Br)cc2)c1)c1cc(CNC(=O)C(F)(F)F)ccc1Cl` [Example 80] the value was 10 nM; for `CC(C)(C(=O)NCc1ccc(Cl)c(C(=O)Nc2ccc(OCC(F)F)c(C(=O)Nc3ccc(F)c(Cl)c3)c2)c1Cl)C(F)(F)F` [Example 145, N-[4-(2,2-difluoroethyl)oxy-3-(4-fluoro-3-chlorophenyl)aminocarbonyl-phenyl]-2,6-dichloro-3-[(2,2,2-trifluoro-1,1-dimethyl-ethyl)carbonylamino]methyl-benzamide], 10 nM; for `CC(O)(C(=O)NCc1ccc(Cl)c(C(=O)Nc2ccc(OCC(F)F)c(C(=O)Nc3ccc(Br)cc3)c2)c1)C(F)(F)F` (stereo not shown) [Example 166], 8 nM.
Take `O=C(Nc1ccc(OCC(F)F)c(C(=O)Nc2ccc(Br)cc2)c1)c1cc(CNC(=O)C(O)C(F)(F)F)ccc1Cl` (stereo not shown) [Example 169]: the IC50 was 9 nM.
For `COCCOc1ccc(NC(=O)c2cc(CNC(=O)C3(C(F)(F)F)CC3)ccc2Cl)cc1C(=O)N[C@H]1CC[C@H](C(F)(F)F)CC1` [Example 53, N-[4-(2-Methoxy)ethoxy-3-(trans-4-trifluoromethylcyclohexyl)aminocarbonyl-phenyl]-2-chloro-5-[1-(trifluoromethyl)cyclopropyl]carbonylaminomethyl-benzamide] the value was 11 nM; for `COCCOc1ccc(NC(=O)c2cc(CNC(=O)C(C)C(F)(F)F)ccc2Cl)cc1C(=O)Nc1ccc(Br)cc1` (stereo not shown) [Example 65, N-[4-(2-Methoxy)ethoxy-3-(4-bromphenyl)aminocarbonyl-phenyl]-2-chloro-5-(2,2,2-trifluoro-1-methyl-ethyl)carbonylaminomethyl-benzamide], 4 nM.
Under `N#CC1(C(=O)NCc2ccc(Cl)c(C(=O)Nc3ccc(OCC(F)F)c(C(=O)Nc4ccc(Br)cc4)c3)c2)CC1` [Example 173] stands 48 nM.
For `CC(C)(C)C(=O)NCc1ccc(Cl)c(C(=O)Nc2ccc(OCC(F)F)c(C(=O)N[C@H]3CC[C@H](C(F)(F)F)CC3)c2)c1Cl` [Example 48, N-[4-(2,2-Difluoroethyl)oxy-3-[trans-(4-trifluoromethylcyclohexyl)amino]carbonylphenyl]-2,6-dichloro-3-(tert-butylcarbonylamino)methyl-benzamide] the value was 6 nM; for `CC(C)CNC(=O)c1cc(NC(=O)c2cc(CNC(=O)C(C)(C)C(F)(F)F)ccc2Cl)ccc1OCC(F)F` [Example 140], 8 nM.
With `CC(C)(C(=O)NCc1ccc(Cl)c(C(=O)Nc2ccc(OCC(F)F)c(C(=O)Nc3ccc(Cl)c(C#N)c3)c2)c1)C(F)(F)F` [Example 106], the 50% inhibitory concentration (IC50) was determined as 6 nM.
For `Cc1cc(NC(=O)c2cc(NC(=O)c3cc(CNC(=O)C(C)(C)C(F)(F)F)ccc3Cl)ccc2OCC(F)F)ccc1Cl` [Example 92] the value was 6 nM; for `CC(C)(C(=O)NCc1ccc(Cl)c(C(=O)Nc2ccc(OCC(F)F)c(C(=O)NCC3(O)CC3)c2)c1)C(F)(F)F` [Example 102], > 100 nM.
Take `CC(C)(C)C(=O)NCc1ccc(Cl)c(C(=O)Nc2ccc(OCC(F)F)c(C(=O)Nc3ccc(F)c(Cl)c3)c2)c1F` [Example 46, N-[4-(2,2-Difluoroethyl)oxy-3-(4-fluoro-3-chloro-phenyl)aminocarbonyl-phenyl]-6-chloro-2-fluoro-3-(tert-butylcarbonylamino)methyl-benzamide]: the half-inhibitory concentration (IC50) stood at 5 nM.
On to `Cc1ccc(Cl)cc1NC(=O)c1cc(NC(=O)c2c(Cl)ccc(CNC(=O)C(C)(C)C(F)(F)F)c2Cl)ccc1OCC(F)F` [Example 153], for which the IC50 was found to be 5 nM.
In the case of `COc1cc(Cl)ccc1NC(=O)c1cc(NC(=O)c2c(Cl)ccc(CNC(=O)C(C)(C)C(F)(F)F)c2Cl)ccc1OCC(F)F` [Example 158], the IC50 is 2 nM.
Under `O=C(Nc1ccc(OCC(F)F)c(C(=O)Nc2ccc(Br)cc2)c1)c1cc(CNC(=O)C2(O)CC2)ccc1Cl` [Example 162] stands 8 nM.
For `CC(C)(C(=O)NCc1ccc(Cl)c(C(=O)Nc2ccc(OCC(F)F)c(C(=O)Nc3cc(F)cc(Cl)c3)c2)c1Cl)C(F)(F)F` [Example 151] the value was 1 nM.
Under `CCNC(=O)c1cc(NC(=O)c2cc(CNC(=O)C(C)(C)C(F)(F)F)ccc2Cl)ccc1OCC(F)F` [Example 112] stands 16 nM.
For the molecule `CC(C)(C(=O)NCc1ccc(Cl)c(C(=O)Nc2ccc(OCC(F)F)c(C(=O)NCC3CCCOC3)c2)c1)C(F)(F)F` (stereo not shown) [Example 98], the IC50 was found to be 43 nM.
Under `CC(C)(C(=O)NCc1ccc(Cl)c(C(=O)Nc2ccc(OCC(F)F)c(C(=O)Nc3nc4c(s3)CCC4)c2)c1)C(F)(F)F` [Example 127] stands 19 nM; under `CC(C)(C)NC(=O)c1cc(NC(=O)c2c(Cl)ccc(CNC(=O)C(C)(C)C(F)(F)F)c2F)ccc1OCC(F)F` [Example 78], 2 nM.
For `CC(C)(C(=O)NCc1ccc(Cl)c(C(=O)Nc2ccc(OCC(F)F)c(C(=O)NCc3cccc(C(F)(F)F)c3)c2)c1)C(F)(F)F` [Example 101] the value was 9 nM; for `COCCOc1ccc(NC(=O)c2cc(CNC(=O)C(C)(C)C)ccc2Cl)cc1C(=O)Nc1ccc(Br)cc1` [Example 70], 5 nM.
Under `CC(C)(C(=O)NCc1ccc(Cl)c(C(=O)Nc2ccc(OCC(F)F)c(C(=O)NCC3CCC3)c2)c1)C(F)(F)F` [Example 141] stands 5 nM; under `CC(C)(C(=O)NCc1ccc(Cl)c(C(=O)Nc2ccc(OCC(F)F)c(C(=O)NCC3CC3)c2)c1Cl)C(F)(F)F` [Example 152], 11 nM; under `CC(C)(C(=O)NCc1ccc(Cl)c(C(=O)Nc2ccc(OCC(F)F)c(C(=O)NCc3ccc(F)cc3C(F)(F)F)c2)c1)C(F)(F)F` [Example 89], 4 nM.
Take `CC(C)(C(=O)NCc1ccc(Cl)c(C(=O)Nc2ccc(OCC(F)F)c(C(=O)NCC3CC3)c2)c1)C(F)(F)F` [Example 95]: the IC50 was 8 nM.
